# Measured values: ChEMBL document CHEMBL4828732, “Synthesis and biological evaluation of selective survivin inhibitors derived from the MX-106 hydroxyquinoline scaffold” (Eur J Med Chem, 2021)
# Assays:
# MDA-MB-435 = assay: cells; conditions: Homo sapiens, MDA-MB-435, 72 h
# SK-BR-3 = assay: cells; conditions: Homo sapiens, SK-BR-3, 72 h
# [1] = Resistance index, ratio of IC50 for antiproliferation activity against human MDA-MB-435/LCC6MDR cells to IC50 for antiproliferation activity against human MDA-MB-435 cells assessed as cell growth inhibition measured after 72 hrs by MTS assay; assay type: functional
# MDA-MB-453 = assay: cells; conditions: Homo sapiens, MDA-MB-453, 72 h
# MDA-MB-435/LCC6MDR1 = assay: cells; conditions: Homo sapiens, MDA-MB-435, 72 h
# A-375 = assay: cells; conditions: Homo sapiens, A-375, 72 h
# RPMI-7951 = assay: cells; conditions: Homo sapiens, RPMI-7951, 72 h
# OVCAR-8 = assay: cells; conditions: Homo sapiens, OVCAR-8, 72 h
# [2] = Metabolic stability of the compound in mouse liver microsomes assessed as half life at 10 uM incubated for 10 mins in presence of NADPH by UPLC-MS analysis; assay type: ADME, Microsome
# [3] = Metabolic stability of the compound in human liver microsomes assessed as clearance at 10 uM incubated for 240 mins in presence of NADPH by UPLC-MS analysis; conditions: 4 h
# OVCAR-3 = assay: cells; conditions: Homo sapiens, OVCAR-3, 72 h
# [4] = Metabolic stability of the compound in rat liver microsomes assessed as half life at 10 uM incubated for 10 mins in presence of NADPH by UPLC-MS analysis; assay type: ADME, Microsome
# [5] = Metabolic stability of the compound in mouse liver microsomes assessed as clearance at 10 uM incubated for 10 mins in presence of NADPH by UPLC-MS analysis; assay type: ADME, Microsome
# [6] = Metabolic stability of the compound in human liver microsomes assessed as half life at 10 uM incubated for 10 mins in presence of NADPH by UPLC-MS analysis; assay type: ADME, Microsome
# [7] = Metabolic stability of the compound in rat liver microsomes assessed as clearance at 10 uM incubated for 10 mins in presence of NADPH by UPLC-MS analysis; assay type: ADME, Microsome
Structure (SMILES),IC50 (MDA-MB-435),IC50 (SK-BR-3),Ratio IC50 [1],IC50 (MDA-MB-453),IC50 (MDA-MB-435/LCC6MDR1),IC50 (A-375),IC50 (RPMI-7951),IC50 (OVCAR-8),t1/2 [2],CLH [3],IC50 (OVCAR-3),t1/2 [4],CLH [5],t1/2 [6],CLH [7]
Oc1c(CN2CCNCC2)cc(Cn2ncc(-c3ccc(Br)cc3)n2)c2cccnc12,4700 nM,2400 nM,1.1,2000 nM,5100 nM,800 nM,600 nM,,,,,,,,
Oc1c(CN2CCCC2)cc(COC2CCc3ccccc3C2)c2cccnc12 (configuration not stated),3300 nM,3900 nM,0.4,,1300 nM,1000 nM,800 nM,,,,,,,,
CCc1ccc(-c2cnn(Cc3cc(CN4CCCC4)c(O)c4ncccc34)n2)cc1,3200 nM,3300 nM,0.3,3300 nM,1000 nM,700 nM,700 nM,,,,,,,,
CC(C)c1ccc(COCc2cc(-c3ccnc4ccccc34)c(O)c3ncccc23)cc1,1200 nM,3100 nM,0.8,1700 nM,1000 nM,800 nM,700 nM,,,,,,,,
COCC[n+]1c2c(n(Cc3cnccn3)c1C)C(=O)c1ccccc1C2=O.[Br-] [SEPANTRONIUM BROMIDE],,,>425,,> 1000 nM,,,,,,,,,,
O=[N+]([O-])c1ccc(-c2cnn(Cc3cc(CN4CCCC4)c(O)c4ncccc34)n2)cc1,4100 nM,3600 nM,0.3,4100 nM,1100 nM,700 nM,700 nM,,,,,,,,
CC(C)c1ccc(COCc2cc(-c3ccc(C(F)(F)F)cc3)c(O)c3ncccc23)cc1,1900 nM,5700 nM,0.6,4400 nM,1200 nM,900 nM,1300 nM,,,,,,,,
Oc1c(CN2CCCC2)cc(COC2Cc3ccccc3C2)c2cccnc12,2200 nM,5900 nM,1,2400 nM,2200 nM,1900 nM,1300 nM,,,,,,,,
Oc1c(CN2CCCCCC2)cc(Cn2ncc(-c3ccc(C(F)(F)F)cc3)n2)c2cccnc12,3100 nM,4200 nM,0.5,6300 nM,1600 nM,900 nM,2100 nM,,,,,,,,
COc1ccc(-c2cnn(Cc3cc(CN4CCCC4)c(O)c4ncccc34)n2)cc1,3900 nM,2800 nM,0.3,2200 nM,1400 nM,900 nM,900 nM,,,,,,,,
Oc1c(CN2CCCCC2)cc(Cn2ncc(-c3ccc(Br)cc3)n2)c2cccnc12,2200 nM,1900 nM,0.5,1500 nM,1200 nM,1000 nM,900 nM,1700 nM,0.7 h,17.5 µL/min/mg,500 nM,1.3 h,35 µL/min/mg,1.3 h,18 µL/min/mg
CC(C)c1ccc(COCc2cc(Br)c(O)c3ncccc23)cc1,2100 nM,5700 nM,0.1,1300 nM,200 nM,1000 nM,800 nM,,,,,,,,
Oc1c(CN2CCCC2)cc(Cn2ncc(-c3ccccc3)n2)c2cccnc12,5000 nM,4000 nM,0.1,2900 nM,600 nM,2000 nM,3100 nM,,,,,,,,
Cc1ccc(-c2cc(COCc3ccc(C(C)C)cc3)c3cccnc3c2O)cc1,1800 nM,1600 nM,1.3,900 nM,2300 nM,800 nM,700 nM,,,,,,,,
Oc1c(CN2CCCC2)cc(Cn2ncc(-c3ccc(C(F)(F)F)cc3)n2)c2cccnc12,4100 nM,3200 nM,0.3,3500 nM,1100 nM,800 nM,1600 nM,,,,,,,,
